Among the test systems are NCI-H226 lung; KM12 colon; ACHN renal; SF-295 CNS; MCF7 breast; NCI-H23 lung; SNB-75 CNS; HS 578T breast; COLO 205 colon; BT-549 breast.
Common to all, as to assay: DTP human tumour cell line panel, 48 h

Each structure is given as a SMILES string.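 Step 1: Grow cells in 96-well plates. Step 2: Expose to compound for 48 hours at 5 concentrations. Step 3: Interpolate endpoints linearly; if unreached, use highest concentration. Abbreviation: GI50, concentration required for 50% inhibition of growth. At the TGI there is no net growth.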

As for `O=C1CC(c2cccc(Cl)c2)Oc2ccccc21` (stereo not given), the TGI (in general, the concentration giving total growth inhibition) in the experiment on NCI-H226 lung amounted to 41.3 µM; with KM12 colon, 39.5 µM; in the experiment on ACHN renal it was 31.7 µM; in the experiment on SF-295 CNS it was 53.6 µM; in the experiment on MCF7 breast, 39.4 µM; in the experiment with NCI-H23 lung it was 24.3 µM. The results for the TGI in the experiment on SNB-75 CNS, in the experiment with HS 578T breast and in the experiment with COLO 205 colon were 66.6 µM, 61.8 µM and 69.3 µM, respectively.
On to `O=C1CC(C2(O)C(=O)Nc3ccc([N+](=O)[O-])cc32)c2ccccc21` (stereo not given), for which the TGI is 92.7 µM in the experiment on NCI-H226 lung; 98.6 µM with KM12 colon; more than 100 µM with ACHN renal; more than 100 µM with SF-295 CNS; 71 µM in the experiment with NCI-H23 lung; more than 100 µM in the experiment on SNB-75 CNS. In the experiment on COLO 205 colon, this compound came in with a TGI of 71.6 µM.
In the case of `CCCC(O)c1cn(-c2cccc(S(=O)(=O)O)c2)nn1` (stereo not given), the TGI with NCI-H226 lung, in the experiment with KM12 colon, with ACHN renal, in the experiment with SF-295 CNS, with NCI-H23 lung and in the experiment with SNB-75 CNS was more than 100 µM throughout. In the experiment with COLO 205 colon, this compound yielded a TGI of more than 100 µM.
Consider `CC1=NN(c2ccccc2)C(=O)C12[C@H](c1ccccc1)C2(C#N)C#N` (stereo not given in full), for which the TGI in the experiment with NCI-H226 lung came out at 26.3 µM; in the experiment with KM12 colon, 25.1 µM; with ACHN renal it was 21.5 µM; in the experiment with SF-295 CNS, 25.5 µM; in the experiment with NCI-H23 lung it was 11 µM; in the experiment on SNB-75 CNS, 19.3 µM. In the experiment on COLO 205 colon, this compound returned a concentration for total growth inhibition (TGI) of 4.42 µM.
Turning to `O=C1OC(=O)C23CSCC12C1C=CC3O1` (stereo not given), the TGI in the experiment with NCI-H226 lung, in the experiment on KM12 colon, with ACHN renal, with SF-295 CNS, in the experiment on NCI-H23 lung and with SNB-75 CNS was more than 100 µM each time. This compound also registered a TGI in the experiment on COLO 205 colon of more than 100 µM.
With `O=C1C(Cl)=C(Cl)C(=O)N1c1ccc(Cl)c(Cl)c1Cl`, the TGI in the experiment with NCI-H226 lung, in the experiment on KM12 colon, in the experiment with ACHN renal, with SF-295 CNS, in the experiment on NCI-H23 lung and in the experiment on SNB-75 CNS was more than 100 µM throughout. Moreover, the TGI in the experiment with COLO 205 colon is more than 100 µM.
Consider `CC(=O)OCC1OC(n2c(=O)[nH]c(=O)c3n[nH]nc32)C(OC(C)=O)C(OC(C)=O)C1OC(C)=O` (stereo not given), for which the TGI in the experiment on ACHN renal, in the experiment on SF-295 CNS, with NCI-H23 lung and in the experiment with COLO 205 colon was more than 100 µM throughout.
`COc1cc(OC)c2c(=O)cc(-c3ccccc3OCc3ccccc3)oc2c1OC`: the GI50 (commonly the concentration that inhibits growth by half) was 6.25 µM in the experiment with NCI-H226 lung; 3.25 µM in the experiment on KM12 colon; 6.19 µM with ACHN renal; 4.65 µM with SF-295 CNS; 5.94 µM in the experiment with NCI-H23 lung; 61.8 µM with SNB-75 CNS. Besides, the GI50 with BT-549 breast is 3.76 µM. The concentration for total growth inhibition (TGI) in the experiment with NCI-H226 lung was 44 µM; with KM12 colon, 16.2 µM; with ACHN renal, more than 100 µM; in the experiment on SF-295 CNS, 26.8 µM; in the experiment on NCI-H23 lung, 23.4 µM; with SNB-75 CNS, more than 100 µM. Further, in the experiment on BT-549 breast, the TGI amounted to 24.6 µM.
As for `COc1ccc(Br)c(CN2CCc3ccccc32)c1OS(=O)(=O)c1ccc(C)cc1`, the TGI with NCI-H226 lung is more than 100 µM; in the experiment with KM12 colon, more than 100 µM; with ACHN renal, more than 100 µM; in the experiment on SF-295 CNS, more than 100 µM; in the experiment with NCI-H23 lung it was 85.1 µM; with SNB-75 CNS, 88.8 µM. Moreover, the TGI in the experiment with COLO 205 colon came to 33.8 µM.
Regarding `CN1CCC(c2c(O)cc(O)c3c(=O)cc(-c4ccccc4Cl)oc23)C(O)C1` (stereo not given), the TGI with NCI-H226 lung is 0.305 µM; in the experiment with KM12 colon, more than 100 µM; in the experiment on NCI-H23 lung, 0.208 µM; in the experiment on SNB-75 CNS, 0.18 µM; with COLO 205 colon it was 0.255 µM. In addition, the GI50 in the experiment on SNB-75 CNS is 0.0482 µM.
In the case of `CCC(C)(O)c1cn(-c2ccc(Cl)cc2)nn1` (stereo not given), the TGI in the experiment on NCI-H226 lung, in the experiment on KM12 colon, in the experiment with ACHN renal, in the experiment with SF-295 CNS, with NCI-H23 lung and in the experiment with SNB-75 CNS was more than 100 µM throughout. Also, the TGI with COLO 205 colon is more than 100 µM.
In the case of `CCCCCCCC(=O)[O-].CCCCCCCC(=O)[O-].N.N.N.N.[Co+3].[O-][Cl+3]([O-])([O-])[O-]`, the GI50 in the experiment with NCI-H226 lung, in the experiment on KM12 colon, in the experiment on ACHN renal, in the experiment with SF-295 CNS, in the experiment on NCI-H23 lung and with SNB-75 CNS was more than 100 µM each time. Also, in the experiment with COLO 205 colon, the GI50 was more than 100 µM. The TGI with NCI-H226 lung, in the experiment on KM12 colon, in the experiment with ACHN renal, in the experiment on SF-295 CNS, in the experiment with NCI-H23 lung and in the experiment on SNB-75 CNS was more than 100 µM each time. In the experiment on COLO 205 colon, this compound showed a total growth inhibition concentration (TGI) of more than 100 µM.
Turning to `COc1cc(Cc2c(C)cc(OC)c3[nH]c4ccccc4c23)cc2c1[nH]c1ccccc12`, the GI50 with NCI-H226 lung is 4.67 µM; in the experiment on KM12 colon it was 5.43 µM; in the experiment with ACHN renal, 4.67 µM; in the experiment with COLO 205 colon it was 12 µM. Moreover, the TGI is 12.8 µM with NCI-H226 lung, 15 µM with KM12 colon, more than 25 µM with ACHN renal and more than 25 µM in the experiment on COLO 205 colon.
In the case of `Cc1cc(Cl)cc2c1NC(=O)C2(O)CC(=O)c1ccc(Br)cc1` (stereo not given), the TGI is more than 100 µM in the experiment with NCI-H226 lung; more than 100 µM in the experiment on KM12 colon; more than 100 µM in the experiment on ACHN renal; more than 100 µM in the experiment on SF-295 CNS; 99.4 µM in the experiment with NCI-H23 lung; more than 100 µM in the experiment on SNB-75 CNS. The compound also came in with a TGI in the experiment on COLO 205 colon of more than 100 µM.
As for `COc1ccc(NC(=O)CC(=O)N/N=C(\C)c2cc3ccccc3oc2=O)cc1`, the TGI in the experiment on NCI-H226 lung, with KM12 colon, in the experiment with ACHN renal, in the experiment with SF-295 CNS, in the experiment on NCI-H23 lung and in the experiment on SNB-75 CNS was more than 100 µM in each case. The same compound displayed a TGI in the experiment with COLO 205 colon of more than 100 µM.
For the compound `CCOC(=O)[C@@]12C(C)=CC(=O)O[C@]1(C)C1C(=O)NC(=O)C12` (stereo not given in full), the TGI with NCI-H226 lung, in the experiment on KM12 colon, with ACHN renal, in the experiment with SF-295 CNS, in the experiment on NCI-H23 lung and in the experiment on SNB-75 CNS was more than 100 µM in each case. This compound registered a TGI in the experiment on COLO 205 colon of more than 100 µM.

For the origin of these results see PubChem BioAssay (NCI).
